Measured values published in US5225425A, “Bis-aryl amide antagonists of platelet activating factor” (American Cyanamid Company, priority 1992, dated 1993).
Values joined by “and” are separate entries in the source; they are usually repeats but may differ in a detail not shown here. Equal values may be shown once.

How the values were obtained:
LPS endotoxin [1] = experiment: High dose acute mouse endotoxemia (LPS endotoxin induced mortality); format: in vivo, Male Balb/c mice; details: for % Survival / survivors/total: i.p., LPS 50 mg/kg ip
From the text: (§1) Endotoxin administration produces a shock-like state characterized by vascular permeability changes, hypotension, neutropenia, thrombocytopenia,multiple organ damage and death. The major mediators released after endotoxin injection are TNF (tumor necrosis factor), PAF (platelet activating factor) and […] (interleukin I). PAF administration mimics the signs and symptoms of endotoxin induced shock and death and endotoxin also induces the release of PAF. Therefore, the effects of endotoxin should be blocked with a PAF antagonist.
(§2) Male Balb/c mice (approximately 20 g) are obtained from Charles River Laboratories and used after a one-two week acclimation period. Animals are given (ip) test compound dissolved in saline or water (sonicated and heated) at different time intervals prior to and after the ip injection of endotoxin (usually 2 hours before LPS endotoxin, and 3-4 hours after). Sigma E. Coli endotoxin, 0111:B4, phenol extraction, catalog #L2630 is used for these studies.
This LD value is approximately 50 mg/kg i.p. The number of survivors in each group (control or treated with test compound) is recorded after 24, 48 or 72 hours and the treated groups (receiving test compound and endotoxin) are compared with the untreated, control group (receiving endotoxin only) or saline control (receiving saline and endotoxin).
LPS Endotoxin challenge = 50 mg/kg ip
Test cpd given 2 hrs. before and 3-4 hrs. after LPS challenge on day 0,
followed by BID dosing for 3-4 days.

PAF = PAF induced lethality in mice; format: in vivo; details: PAF 150 μg/kg IV
Experimental: PAF given I.V. to mice causes an immediate hypotensive shock leading to death in 1 hour or less. […] Animals alive after 2 hours are counted and the activity of test compounds expressed as % survival corrected for any control (saline treated) animals which survived the PAF challenge.

PAF receptor = target: T1, PAF receptor (Oryctolagus cuniculus, UniProt G1TEI7); experiment: Inhibition of PAF induced platelet aggregation in rabbit platelet rich plasma; format: cell-based, rabbit (New Zealand White)
T1 construct: centrifuged at 800 rpm for 10-15 minutes at room temperature to recover the platelet rich plasma (PRP); from tissue; host or cells: platelets in platelet rich plasma from blood of male New Zealand White rabbits
Experimental: Test compounds are evaluated as PAF receptor antagonists in vitro by measuring inhibition of PAF (platelet activating factor) induced platelet aggregation. Platelet aggregation is measured by a modification of the method described in […], et. al., J. Med. Chem., 27 1174, 1984. […] All syringes and pipets are plastic. The blood is gently mixed and immediately centrifuged at 800 rpm for 10-15 minutes at room temperature to recover the platelet rich plasma (PRP). Platelet poor plasma (PPP) is prepared by centrifuging PRP at 2800 rpm for 10 minutes at room temperature. Dilutions (1:3000) of PRP in Isotone diluent are made and platelet counts are determined on a Coulter Thrombocounter which is standardized with platelet reference standards (Interscience Platelet Control, Portland, Oreg.). PRP platelet counts are adjusted to approximately 400,000-500,000 platelets/μl by the addition of PPP. L-PAF (Platelet Activating Factor) is obtained from Calbiochem. […] All solutions are made up in plastic tubes, stored on ice and protected from heat and light. Solutions are prepared fresh or frozen at -20° C. and used within 48 hours. Incubation mixtures consisted of 400 μl PRP, 50 μl of saline diluent or test compound and 50 μl of PAF agonist. More specifically, 400μl of PRP is stabilized in a cuvette for 1-2 minutes at 37° C. in the aggregometer to achieve a stable baseline, then 50 μl of saline or test compound is added and incubated for 5 minutes before addition of the challenge concentration of pAF. A submaximal concentration is determined from the dose response curve for PAF for that experiment. In general, the challenge concentration is 5E-8 or 1E-7M. Aggregation is monitored for 5 minutes. Samples containing test compound or diluent are run simultaneously for comparison. Test compounds are initially evaluated at a screening concentration of 1E-5M. […] The recording equipment consists of a dual channel Chronolog aggregometer connected to a dual channel 10MV full scale deflection Omniscribe chart recorder (Houston Instruments). The chart recorder is calibrated daily with the use of a suspension of Bio-Rad latex beads (S-X 12 400 mesh) which has a density slightly greater than rabbit PRP. […] These limits defined a full scale deflection. The aggregation traces are analyzed by a digitizing method (C. Kohler and B. Zoltan, J. Pharm. Methods, 12, 113, 1984) with x, y coordinate data stored in a computer file. A suitable program computes parameters of interest such as the magnitude of aggregation.

LPS endotoxin [2] = experiment: Low dose, chronic mouse endotoxemia (LPS endotoxin); format: in vivo, Male Balb/c mice; details: dose 10 mg/kg i.p.; day 6; LPS 20 mg/kg i.p.
From the text: as §1, §2
For the chronic endotoxin shock model, a lower dose of endotoxin is administered (generally 15 to 20 mg/kg i.p). This dose gives an LD80 in two to four days following LPS administration. Test compounds are given 2 hours before LPS and 3-4 hours after on the first day, followed by 3 or 4 consecutive days of BID dosing. The number of survivors in each group is recorded each day for a period of 5 to 7 days.
All mice challenged with LPS endotoxin = 20 mg/kg i.p.
CL test cpd given 2 hours before and 3-4 hours after LPS challenge on day
0, followed by BID dosing for 3-4 days.

T1 sequence (G1TEI7 1-342): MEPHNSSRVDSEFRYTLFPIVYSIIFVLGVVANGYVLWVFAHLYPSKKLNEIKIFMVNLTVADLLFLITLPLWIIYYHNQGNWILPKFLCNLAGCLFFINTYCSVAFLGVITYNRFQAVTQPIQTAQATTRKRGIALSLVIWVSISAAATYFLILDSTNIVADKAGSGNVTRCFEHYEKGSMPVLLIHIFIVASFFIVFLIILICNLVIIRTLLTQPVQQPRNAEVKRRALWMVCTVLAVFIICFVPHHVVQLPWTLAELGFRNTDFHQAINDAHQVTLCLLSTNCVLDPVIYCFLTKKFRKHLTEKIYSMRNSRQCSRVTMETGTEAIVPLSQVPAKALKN

CCCCCCCCCCCCCCOc1cccc(CC(=O)Nc2cccc(C[n+]3csc(C)c3)c2)c1.[Br-] [5-methyl-3-[[3-[[[3-(tetradecyloxy)phenyl]acetyl]amino]phenyl]methyl]thiazolium bromide]
% Survival (LPS endotoxin [1]; day 0): 100% | survivors/total (LPS endotoxin [1]; day 0): 30/30 | % Survival (LPS endotoxin [1]; day 1): 40% | survivors/total (LPS endotoxin [1]; day 1): 12/30 | % Survival (LPS endotoxin [1]; day 2): 13% | survivors/total (LPS endotoxin [1]; day 2): 4/30 | % Survival (LPS endotoxin [1]; day 3): 10% | survivors/total (LPS endotoxin [1]; day 3): 3/30 | % Survival (LPS endotoxin [1]; day 4): 10% | survivors/total (LPS endotoxin [1]; day 4): 3/30 | activity when administered ip prior to a lethal ip injection of endotoxin (LPS endotoxin [1]; ip, in words): some activity | % Survival (PAF; 5 mg/kg P.O.): 40% | % Survival (PAF; 20 mg/kg P.O.): 59% | IC50 (PAF receptor; PAF challenge 5.0000E-08 M): 0.49 µM and 1.27 µM | IC50 (PAF receptor; PAF challenge 5E-9 M): 1.06 µM | inhibition at 10 µM (PAF receptor; dose .00001 M, PAF challenge 5E-9 M, read-out: % INH of PAF induced platelet aggregation): 100% | % Survival (LPS endotoxin [2]): 43%
